The kinase profiling compilation of Christmann-Franck et al. (2016)

Legend:
Assay in all cases: KINOMEscan competition binding
Settings in all cases: compound 10.0 µM
[1] = target: PDGFRB (human) (UniProt P09619)
[2] = target: TAOK1 (human) (UniProt Q7L7X3)
[3] = target: RIOK2 (human) (UniProt Q9BVS4)
[4] = target: TYRO3 (human) (UniProt Q06418)
[5] = system: FLT3 (human), P36888 [N841I]
[6] = target: TYK2 JH1 catalytic (human) (UniProt P29597)
[7] = target: MAPK13 (human) (UniProt O15264)
[8] = target: EGFR (human) (UniProt P00533)
[9] = target: ZAP70 (human) (UniProt P43403)
[10] = target: CLK4 (human) (UniProt Q9HAZ1)
[11] = target: CDC42BPG (human) (UniProt Q6DT37)
[12] = target: MST4 (human) (UniProt Q9P289)
[13] = target: BMPR1A (human) (UniProt P36894)
BMPR1A (human), sequence (P36894 whole entry, looked up): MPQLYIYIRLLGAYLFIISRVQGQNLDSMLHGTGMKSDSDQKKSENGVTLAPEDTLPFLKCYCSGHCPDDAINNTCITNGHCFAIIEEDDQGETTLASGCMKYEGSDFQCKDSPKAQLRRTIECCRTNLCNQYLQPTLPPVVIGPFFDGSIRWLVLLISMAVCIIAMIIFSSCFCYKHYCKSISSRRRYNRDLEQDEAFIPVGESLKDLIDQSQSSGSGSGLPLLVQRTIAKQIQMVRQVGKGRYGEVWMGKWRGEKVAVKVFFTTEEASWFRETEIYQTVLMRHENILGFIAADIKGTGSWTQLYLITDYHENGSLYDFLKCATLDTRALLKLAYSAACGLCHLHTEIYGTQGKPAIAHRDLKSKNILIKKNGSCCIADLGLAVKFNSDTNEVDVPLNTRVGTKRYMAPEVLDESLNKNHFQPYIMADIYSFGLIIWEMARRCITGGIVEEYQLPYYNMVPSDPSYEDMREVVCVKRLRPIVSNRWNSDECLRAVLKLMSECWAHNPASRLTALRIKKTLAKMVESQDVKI

[14] = system: KIT (human), P10721 [D816V]
[15] = system: FLT3 (human), P36888 [ITD]
[16] = target: PIK3CG (human) (UniProt P48736)
[17] = target: AKT2 (human) (UniProt P31751)
[18] = target: ACVR2A (human) (UniProt P27037)
[19] = target: MLTK (human) (UniProt Q9NYL2)
[20] = target: MST1R (human) (UniProt Q04912)
[21] = target: RIPK2 (human) (UniProt O43353)
[22] = target: AXL (human) (UniProt P30530)
[23] = target: TTK (human) (UniProt P33981)
[24] = target: CSNK1E (human) (UniProt P49674)
[25] = target: MAP3K5 (human) (UniProt Q99683)
MAP3K5 (human), sequence (Q99683 whole entry, looked up): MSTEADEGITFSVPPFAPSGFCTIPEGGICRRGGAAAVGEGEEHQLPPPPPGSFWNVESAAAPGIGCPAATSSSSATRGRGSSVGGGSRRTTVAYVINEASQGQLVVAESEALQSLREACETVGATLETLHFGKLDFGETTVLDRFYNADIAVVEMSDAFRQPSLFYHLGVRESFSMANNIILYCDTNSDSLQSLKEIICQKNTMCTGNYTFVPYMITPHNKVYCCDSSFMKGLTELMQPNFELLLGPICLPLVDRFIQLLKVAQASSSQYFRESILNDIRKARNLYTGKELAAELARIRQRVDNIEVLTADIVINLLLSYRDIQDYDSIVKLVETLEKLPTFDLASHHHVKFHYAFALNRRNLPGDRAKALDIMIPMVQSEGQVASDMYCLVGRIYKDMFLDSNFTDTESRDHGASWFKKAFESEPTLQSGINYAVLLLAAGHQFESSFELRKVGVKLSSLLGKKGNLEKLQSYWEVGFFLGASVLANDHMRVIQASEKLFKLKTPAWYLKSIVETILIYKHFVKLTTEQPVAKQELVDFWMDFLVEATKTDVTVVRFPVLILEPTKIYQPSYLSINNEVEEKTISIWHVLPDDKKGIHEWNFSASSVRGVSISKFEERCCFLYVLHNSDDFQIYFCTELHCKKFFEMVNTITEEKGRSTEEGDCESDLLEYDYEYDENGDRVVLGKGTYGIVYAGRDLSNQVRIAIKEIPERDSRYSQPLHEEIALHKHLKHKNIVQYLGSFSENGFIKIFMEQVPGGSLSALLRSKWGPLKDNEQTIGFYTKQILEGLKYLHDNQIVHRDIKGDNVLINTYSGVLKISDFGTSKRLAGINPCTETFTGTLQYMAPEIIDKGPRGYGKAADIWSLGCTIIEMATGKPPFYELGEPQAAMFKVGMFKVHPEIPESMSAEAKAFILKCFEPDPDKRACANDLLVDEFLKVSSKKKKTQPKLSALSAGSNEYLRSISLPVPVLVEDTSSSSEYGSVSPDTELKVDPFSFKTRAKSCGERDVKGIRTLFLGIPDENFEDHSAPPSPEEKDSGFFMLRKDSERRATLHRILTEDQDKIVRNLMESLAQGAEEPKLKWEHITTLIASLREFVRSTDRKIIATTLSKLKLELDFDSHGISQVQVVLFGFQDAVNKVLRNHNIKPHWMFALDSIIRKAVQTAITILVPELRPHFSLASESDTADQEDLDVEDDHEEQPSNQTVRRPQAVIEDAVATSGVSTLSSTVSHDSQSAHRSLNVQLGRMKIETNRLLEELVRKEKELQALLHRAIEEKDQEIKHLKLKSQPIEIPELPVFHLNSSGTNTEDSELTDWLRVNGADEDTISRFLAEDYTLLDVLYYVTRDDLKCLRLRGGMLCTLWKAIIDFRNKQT

[26] = target: PKN3 (M.tuberculosis) (UniProt Q6P5Z2)
[27] = target: SRPK3 (human) (UniProt Q9UPE1)
[28] = target: ERBB2 (human) (UniProt P04626)
[29] = system: ABL1 (human), P00519 [M351T]
[30] = target: CSNK2A1 (human) (UniProt P68400)
[31] = target: EPHA4 (human) (UniProt P54764)
EPHA4 (human), sequence (P54764 whole entry, looked up): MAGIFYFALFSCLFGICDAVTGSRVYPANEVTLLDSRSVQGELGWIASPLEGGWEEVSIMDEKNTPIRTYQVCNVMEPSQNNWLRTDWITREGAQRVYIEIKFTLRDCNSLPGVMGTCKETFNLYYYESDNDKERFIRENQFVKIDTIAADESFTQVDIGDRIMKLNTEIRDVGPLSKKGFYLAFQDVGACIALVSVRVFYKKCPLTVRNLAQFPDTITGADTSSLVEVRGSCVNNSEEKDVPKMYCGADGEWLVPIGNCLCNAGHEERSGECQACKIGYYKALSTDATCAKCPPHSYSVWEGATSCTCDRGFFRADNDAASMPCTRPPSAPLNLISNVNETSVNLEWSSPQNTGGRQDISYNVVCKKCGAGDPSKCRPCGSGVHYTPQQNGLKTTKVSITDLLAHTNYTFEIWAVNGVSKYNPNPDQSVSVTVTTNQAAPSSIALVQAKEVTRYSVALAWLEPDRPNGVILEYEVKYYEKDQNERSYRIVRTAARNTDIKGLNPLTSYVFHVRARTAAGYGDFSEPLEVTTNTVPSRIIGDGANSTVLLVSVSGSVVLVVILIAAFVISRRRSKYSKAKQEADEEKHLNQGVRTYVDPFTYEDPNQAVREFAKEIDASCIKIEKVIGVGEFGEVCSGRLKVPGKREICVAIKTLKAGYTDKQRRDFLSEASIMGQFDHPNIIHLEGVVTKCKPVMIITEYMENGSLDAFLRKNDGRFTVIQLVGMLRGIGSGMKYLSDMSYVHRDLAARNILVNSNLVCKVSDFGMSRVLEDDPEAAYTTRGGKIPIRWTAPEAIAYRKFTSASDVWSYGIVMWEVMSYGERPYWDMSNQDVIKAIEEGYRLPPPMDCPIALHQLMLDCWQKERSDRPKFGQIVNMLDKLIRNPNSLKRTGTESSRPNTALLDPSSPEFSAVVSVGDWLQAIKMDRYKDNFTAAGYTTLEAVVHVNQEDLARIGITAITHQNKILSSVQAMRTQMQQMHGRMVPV

[32] = system: LRRK2 (human), Q5S007 [G2019S]
[33] = target: BRSK1 (human) (UniProt Q8TDC3)
[34] = target: SIK3 (human) (UniProt Q9Y2K2)
[35] = target: TNK2 (human) (UniProt Q07912)
[36] = target: ROS1 (human) (UniProt P08922)
[37] = target: PIP4K2C (human) (UniProt Q8TBX8)
[38] = target: BTK (human) (UniProt Q06187)
[39] = target: CLK3 (human) (UniProt P49761)
CLK3 (human), sequence (P49761 whole entry, looked up): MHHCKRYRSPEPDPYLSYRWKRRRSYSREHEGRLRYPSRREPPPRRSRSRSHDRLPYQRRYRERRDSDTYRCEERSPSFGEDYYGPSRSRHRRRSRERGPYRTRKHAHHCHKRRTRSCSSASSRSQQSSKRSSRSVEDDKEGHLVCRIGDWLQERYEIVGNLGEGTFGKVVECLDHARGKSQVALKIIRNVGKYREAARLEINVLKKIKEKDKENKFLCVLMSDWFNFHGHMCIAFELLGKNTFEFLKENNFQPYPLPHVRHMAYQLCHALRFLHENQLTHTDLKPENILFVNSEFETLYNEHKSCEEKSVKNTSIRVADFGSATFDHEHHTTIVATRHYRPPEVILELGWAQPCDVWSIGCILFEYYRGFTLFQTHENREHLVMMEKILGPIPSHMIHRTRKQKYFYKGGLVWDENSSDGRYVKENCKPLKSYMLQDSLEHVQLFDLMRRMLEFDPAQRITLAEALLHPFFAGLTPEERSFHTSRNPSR

[40] = system: KIT (human), P10721 [V559D/T670I]
[41] = target: PLK2 (human) (UniProt Q9NYY3)
PLK2 (human), sequence (Q9NYY3 whole entry, looked up): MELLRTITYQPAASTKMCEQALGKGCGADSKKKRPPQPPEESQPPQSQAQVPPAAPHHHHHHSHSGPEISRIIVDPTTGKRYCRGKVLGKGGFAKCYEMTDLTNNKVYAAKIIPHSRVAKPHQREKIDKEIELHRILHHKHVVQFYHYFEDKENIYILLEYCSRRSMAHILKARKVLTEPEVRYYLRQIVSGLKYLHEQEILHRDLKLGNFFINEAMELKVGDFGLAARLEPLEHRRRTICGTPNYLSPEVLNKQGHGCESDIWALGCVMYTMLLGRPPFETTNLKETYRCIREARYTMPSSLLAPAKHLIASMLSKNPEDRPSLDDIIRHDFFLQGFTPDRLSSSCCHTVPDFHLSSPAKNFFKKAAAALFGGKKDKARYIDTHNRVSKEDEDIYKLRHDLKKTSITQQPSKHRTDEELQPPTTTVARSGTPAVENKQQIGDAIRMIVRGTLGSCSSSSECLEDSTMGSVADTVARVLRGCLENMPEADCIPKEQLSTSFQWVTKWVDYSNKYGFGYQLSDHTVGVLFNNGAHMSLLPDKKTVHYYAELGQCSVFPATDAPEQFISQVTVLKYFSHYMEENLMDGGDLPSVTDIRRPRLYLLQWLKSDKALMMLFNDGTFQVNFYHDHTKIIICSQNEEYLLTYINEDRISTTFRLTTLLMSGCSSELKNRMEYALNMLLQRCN

[42] = target: FGFR3 (human) (UniProt P22607)

TAOK1 (human), sequence (Q7L7X3 whole entry, looked up): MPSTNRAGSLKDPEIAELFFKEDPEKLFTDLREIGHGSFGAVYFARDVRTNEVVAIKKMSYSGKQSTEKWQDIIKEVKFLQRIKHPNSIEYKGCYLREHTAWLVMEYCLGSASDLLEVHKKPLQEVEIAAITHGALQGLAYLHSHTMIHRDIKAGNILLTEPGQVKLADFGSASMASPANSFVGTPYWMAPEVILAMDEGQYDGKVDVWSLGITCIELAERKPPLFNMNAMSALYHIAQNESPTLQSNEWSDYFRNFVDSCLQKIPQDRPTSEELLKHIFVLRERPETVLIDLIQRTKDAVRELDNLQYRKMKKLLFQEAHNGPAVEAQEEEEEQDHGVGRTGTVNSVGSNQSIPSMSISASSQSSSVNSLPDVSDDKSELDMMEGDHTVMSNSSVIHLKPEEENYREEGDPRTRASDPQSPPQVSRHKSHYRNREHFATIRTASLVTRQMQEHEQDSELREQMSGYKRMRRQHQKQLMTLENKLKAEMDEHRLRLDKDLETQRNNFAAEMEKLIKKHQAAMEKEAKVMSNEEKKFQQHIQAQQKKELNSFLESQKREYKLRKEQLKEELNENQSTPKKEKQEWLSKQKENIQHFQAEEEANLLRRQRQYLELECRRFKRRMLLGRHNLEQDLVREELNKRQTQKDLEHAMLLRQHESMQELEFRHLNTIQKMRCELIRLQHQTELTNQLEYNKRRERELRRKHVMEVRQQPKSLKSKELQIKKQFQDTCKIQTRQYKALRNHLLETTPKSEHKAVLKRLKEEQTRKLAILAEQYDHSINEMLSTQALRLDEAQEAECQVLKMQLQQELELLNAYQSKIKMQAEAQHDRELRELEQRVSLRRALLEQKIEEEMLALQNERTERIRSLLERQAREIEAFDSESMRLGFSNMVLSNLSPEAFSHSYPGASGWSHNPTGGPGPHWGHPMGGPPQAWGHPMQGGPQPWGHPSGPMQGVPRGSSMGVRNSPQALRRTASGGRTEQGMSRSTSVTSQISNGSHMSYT

SMILES: Cc1ccc(NC(=O)c2ccc(NC(=O)/C=C/CN(C)C)cc2)cc1Nc1nccc(-c2cccnc2)n1
- kinase still bound, per cent of control [1]: 0%
- kinase still bound, per cent of control [2]: 46%
- kinase still bound, per cent of control [3]: 3.2%
- kinase still bound, per cent of control [4]: 100%
- kinase still bound, per cent of control [5]: 92%
- kinase still bound, per cent of control [6]: 92%
- kinase still bound, per cent of control [7]: 87%
- kinase still bound, per cent of control [8]: 62%
- kinase still bound, per cent of control [9]: 56%
- kinase still bound, per cent of control [10]: 6.2%
- kinase still bound, per cent of control [11]: 86%
- kinase still bound, per cent of control [12]: 53%
- kinase still bound, per cent of control [13]: 81%
- kinase still bound, per cent of control [14]: 38%
- kinase still bound, per cent of control [15]: 46%
- kinase still bound, per cent of control [16]: 68%
- kinase still bound, per cent of control [17]: 100%
- kinase still bound, per cent of control [18]: 82%
- kinase still bound, per cent of control [19]: 78%
- kinase still bound, per cent of control [20]: 100%
- kinase still bound, per cent of control [21]: 67%
- kinase still bound, per cent of control [22]: 90%
- kinase still bound, per cent of control [23]: 83%
- kinase still bound, per cent of control [24]: 72%
- kinase still bound, per cent of control [25]: 100%
- kinase still bound, per cent of control [26]: 86%
- kinase still bound, per cent of control [27]: 76%
- kinase still bound, per cent of control [28]: 50%
- kinase still bound, per cent of control [29]: 47%
- kinase still bound, per cent of control [30]: 11%
- kinase still bound, per cent of control [31]: 100%
- kinase still bound, per cent of control [32]: 48%
- kinase still bound, per cent of control [33]: 53%
- kinase still bound, per cent of control [34]: 100%
- kinase still bound, per cent of control [35]: 98%
- kinase still bound, per cent of control [36]: 100%
- kinase still bound, per cent of control [37]: 2%
- kinase still bound, per cent of control [38]: 76%
- kinase still bound, per cent of control [39]: 93%
- kinase still bound, per cent of control [40]: 18%
- kinase still bound, per cent of control [41]: 34%
- kinase still bound, per cent of control [42]: 100%
